In publication PMC9474883, “Novel tricyclic small molecule inhibitors of Nicotinamide N-methyltransferase for the treatment of metabolic disorders” (Scientific Reports, 2022):
Values joined by “and” are separate entries in the source; they are usually repeats but may differ in a detail not shown here. Equal entries are not always repeated.

How the values were obtained:
hNNMT [1] = biological target: T1, hNNMT (Homo sapiens, UniProt P40261); experiment: Fluorescence based NNMT enzymatic assay (human); format: biochemical; conditions: recombinant human NNMT, fluorescence of an MNA derivative; for IC50: read-out: hNNMT IC50
T1 sequence (P40261 1-264): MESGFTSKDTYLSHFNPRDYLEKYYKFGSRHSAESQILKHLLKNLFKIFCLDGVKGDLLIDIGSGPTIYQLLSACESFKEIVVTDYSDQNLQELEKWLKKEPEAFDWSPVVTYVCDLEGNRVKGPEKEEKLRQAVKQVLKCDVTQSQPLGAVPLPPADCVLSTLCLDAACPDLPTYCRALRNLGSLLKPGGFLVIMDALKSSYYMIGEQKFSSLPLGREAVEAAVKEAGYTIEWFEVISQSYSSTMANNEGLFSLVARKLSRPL
Description: (§1) NNMT activity was measured by a fluorescence based assay as previously described. Briefly, Inhibitors were screened using human, mouse and monkey NNMT enzymes at different concentrations. The final assay reaction mixture contained a buffer of 100 mM Tris Hcl pH 7.5, 0.04% BSA, 2 mM Dithiothreitol and 1% DMSO. A fluorescent product 2, 7- naphthyridine was measured in a Tecan reader with excitation at 375 nm and emission at 430 nm. The IC50 values were determined by fitting the inhibition curves (percent inhibition versus inhibitor concentration) using a four parametric sigmoidal dose response in graph pad prism.

mouse NNMT = biological target: T2, mouse NNMT (Mus musculus, UniProt O55239); experiment: Fluorescence based NNMT enzymatic assay (mouse); format: biochemical; conditions: recombinant mouse NNMT, fluorescence of an MNA derivative; read-out: mNNMT IC50
T2 sequence (O55239 1-264): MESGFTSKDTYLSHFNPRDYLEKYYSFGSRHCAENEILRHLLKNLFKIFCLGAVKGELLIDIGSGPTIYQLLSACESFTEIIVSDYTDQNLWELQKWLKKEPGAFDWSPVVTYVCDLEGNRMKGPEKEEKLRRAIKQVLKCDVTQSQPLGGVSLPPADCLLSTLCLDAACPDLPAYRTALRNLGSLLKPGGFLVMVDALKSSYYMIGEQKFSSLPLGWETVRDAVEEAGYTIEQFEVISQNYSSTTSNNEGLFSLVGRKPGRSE
Description: as §1

[2] = biological target: T3, endogenous NNMT in U2OS cells (Homo sapiens, UniProt P40261); experiment: Cell based U2OS assay (endogenous NNMT, MNA by LC–MS/MS); conditions: 24 h treatment; for EC50: read-out: Cell based inhibition in U2OS EC50
T3 construct: endogenous in cells; host or cells: U2OS (human bone osteosarcoma)
T3 sequence (P40261 1-264): T1 sequence (P40261 1-264)
Description: (§2) As next steps, cellular assays using the human U2OS cell line were carried out. This assay, described in[6], measures inhibition of endogenous NNMT, without recombinant expression, by quantification of MNA via LC–MS/MS. […] EC50 values were higher by a factor of ~ 30 compared to IC50 values on the isolated recombinant hNNMT, probably reflecting low cell membrane permeability.
The cell based assay with Human bone osteosarcoma (U2OS) cell line was performed using procedures described before (6). Briefly, the cells were seeded into a 96 well cell culture plate followed by incubation for 24 h at 37 °C, 5% CO2, and 95% humidity. Cell culture media was replaced with 100 µl of medium/ inhibitor mixture at different concentrations and incubated for another 24 h. The cells were processed and […] of supernatant was transferred into 96 well plate (Costar 3364) and analyzed by LC–MS/MS. The IC50 values were determined by fitting the inhibition curves (percent inhibition versus inhibitor concentration) using a four parametric sigmoidal dose response graph pad prism.

[3] = test system: NNMT (endogenous MNA levels); experiment: Determination of MNA in cells (Target engagement); format: cell-based, human; conditions: maximal MNA reduction relative to control without compound
Description: as §2

NNMT = conditions: published NNMT inhibitor; cited from earlier work
hNNMT [4] = biological target: T1, hNNMT; experiment: Thermal shift assay; conditions: for shift in melting temperature (Tm) in presence of SAM / shift in melting temperature (Tm) in presence of SAH: hNNMT; for shift in melting temperature (Tm) in presence of SAM: 5 uM SAM, 10 uM compound; for shift in melting temperature (Tm) in presence of SAH: enzyme:SAH:compound ~ 1:5:10 (1 uM protein, 5 uM SAH, 10 uM compound)
Description: Thermal shift assay was performed to assess the binding of tricyclic compounds [(6) = JBSNF-000028, (8) = JBSNF-000107] to hNNMT prior to co-crystallization studies.

SMILES | IC50 (hNNMT [1]) | IC50 (mouse NNMT) [nM] | further results
CN1Cc2cc(F)cc3c2N(CCN3C)C1=N [Compound (20)] | > 3000 nM | – | –
CN(C)C(=O)N1CCN2C(=N)N(C)Cc3cccc1c32 [Compound (17)] | > 30000 nM | – | –
CN1Cc2cccc3c2N(CCO3)C1=N [Compound (12)] | 180 ± 20 nM | 380 ± 20 | –
CN1Cc2cccc3ccn(c23)C1=N [Compound (23)] | > 30000 nM | – | –
Br.CN1Cc2cc(F)cc3c2N(CCO3)C1=N [Compound (18)] | 69 ± 36 nM | > 3000 | EC50 [2]: 2500 ± 200 nM; % MNA reduction [3]: 30%
Br.N=C1N(CCCc2ccccc2F)Cc2cccc3c2N1CCO3 [Compound (22)] | > 30000 nM | – | hNNMT IC50 (hNNMT [1]): inactive
Br.CN1Cc2c(F)c(F)cc3c2N(CC3)C1=N [Compound (9), 8,9-difluoro-2-methyl-1,2,5,6-tetrahydro-3H-pyrrolo[3,2,1-ij]quinazolin-3-imine hydrobromide] | 490 ± 40 nM | > 3000 | EC50 [2]: > 3000 nM; % MNA reduction [3]: 43%
CN1CCc2cccc3c2N(CC3)C1=N [Compound (27)] | > 3000 nM | – | –
CN1Cc2cccc3c2N(CCC3)C1=N [Compound (1)] | 130 ± 80 nM | 180 ± 10 | Cell based inhibition in U2OS EC50 [2]: active; EC50 [2]: 2500 ± 300 nM; % MNA reduction [3]: 30%
CN1Cc2cccc3c2N(CCS3)C1=N [Compound (13)] | 860 ± 60 nM | 200 ± 20 | EC50 [2]: > 10000 nM; % MNA reduction [3]: 40%
CN1Cc2cccc3cccc(c23)C1=N [(24)] | > 10000 nM | – | –
CC(=O)N1CCN2C(=N)N(C)Cc3cccc1c32 [Compound (15)] | > 30000 nM | – | –
CN1Cc2ccc(F)c3c2N(CC3)C1=N [Compound (11)] | > 1000 nM | – | –
CN1Cc2cccc3c2N(CCN3C)C1=N [Compound (16)] | > 30000 nM | – | –
CN1Cc2cccc3c2N(CC3)C1=O [(7), 2-methyl-1,2,5,6-tetrahydro-3H-pyrrolo[3,2,1-ij]quinazolin-3-one] | – | – | hNNMT IC50 (hNNMT [1]): inactive
N=c1sc2cccc3c2n1CCC3 [A] | 1600 nM | – | –
Br.N=C1N(CC(F)(F)F)Cc2cc(F)cc3c2N1CCO3 [Compound (21)] | > 30000 nM | – | hNNMT IC50 (hNNMT [1]): inactive
CNc1ccc(C(N)=O)cn1 [Compound 28, 6-methylaminonicotinamide] | – | – | IC50 (NNMT): 590 nM
CN1Cc2cc(F)cc3c2N(CC3)C1=N [Compound (8)] | 38 nM and 39 nM | 1100 ± 500 | EC50 [2]: 1100 ± 200 nM; % MNA reduction [3]: 30%; Tm in presence of SAH (hNNMT [4]; hNNMT 1 uM, SAH 5 uM, compound 10 uM, protein with SAH alone Tm=39°C): 50 °C; Tm in presence of SAM (hNNMT [4]; hNNMT 1 uM, SAM 5 uM, compound 10 uM, protein with SAM alone Tm=38°C): 41 °C; shift in melting temperature (Tm) in presence of SAM (hNNMT [4]; listed as JBSFN-107): up to 3 °C; shift in melting temperature (Tm) in presence of SAM (hNNMT [4]; listed as JBSNF-000107): ~ 3 °C; shift in melting temperature (Tm) in presence of SAH (hNNMT [4]; listed as JBSFN-107): up to 11 °C; shift in melting temperature (Tm) in presence of SAH (hNNMT [4]; listed as JBSNF-000107): ~ 10 °C
CN1Cc2cncc3c2N(CCC3)C1=N [Compound (4)] | 360 ± 100 nM | 770 ± 40 | –
CCn1c(=N)n2c3c(cccc31)CCC2 [B] | 180 nM | – | –
CN1Cc2cc(F)cc3c2N(CCC3)C1=N [Compound (2)] | 59 ± 4 nM | 330 ± 130 | Cell based inhibition in U2OS EC50 [2]: active; EC50 [2]: 2200 ± 100 nM; % MNA reduction [3]: 21%
CN1Cc2c(F)c(F)cc3c2N(CCC3)C1=N [Compound (3)] | 200 nM and 190 nM | 1200 ± 750 | EC50 [2]: > 3000 nM; % MNA reduction [3]: 14%
CN1Cc2cccc3c2N(CCCC3)C1=N [Compound (5)] | > 30000 nM | – | –
CN1Cc2c3c(nn2C)CCCN3C1=N [Compound (25)] | > 30000 nM | – | –
CN1Cc2nn(C)c3c2N(CCC3)C1=N [Compound (26)] | > 30000 nM | – | –
CN1Cc2cccc3c2N(CCN3C#N)C1=N [Compound (14)] | 250 ± 70 nM | 720 ± 70 | –
